According to US8999940B2 (Ipsen Pharma S.A.S., priority 2008, dated 2015):

What was measured:
[1] = biological target: T1, human recombinant GIP receptor (Homo sapiens, UniProt P48546); assay: In vitro hGIP receptor binding assay
T1 construct: expressed in transfected cells; host or cells: CHO-K1 clonal cells (membrane preparation)
T1 sequence (P48546 22-466): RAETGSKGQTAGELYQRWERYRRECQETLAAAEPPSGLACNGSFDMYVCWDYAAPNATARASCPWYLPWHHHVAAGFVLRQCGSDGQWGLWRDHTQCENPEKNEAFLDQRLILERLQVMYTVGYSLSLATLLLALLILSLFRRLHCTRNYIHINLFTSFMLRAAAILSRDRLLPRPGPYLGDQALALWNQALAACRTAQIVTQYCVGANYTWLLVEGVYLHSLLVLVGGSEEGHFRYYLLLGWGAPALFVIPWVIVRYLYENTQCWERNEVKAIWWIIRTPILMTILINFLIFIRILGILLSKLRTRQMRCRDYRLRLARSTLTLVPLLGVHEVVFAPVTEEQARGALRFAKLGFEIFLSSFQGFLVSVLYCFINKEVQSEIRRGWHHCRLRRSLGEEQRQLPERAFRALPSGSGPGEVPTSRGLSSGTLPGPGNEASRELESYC
Method: A. In Vitro hGIP Receptor Binding Assay […] The incubations were terminated by rapid filtration through GF/C filters (pre-soaked in 0.5% polyethylenimine) using a Brandel filtration manifold. Each tube and filter were then washed three times with 5-ml aliquots of ice-cold buffer.

[2] = Human plasma half-life assay; type: in vitro ADME; conditions: 37° C., LC-MS, read-out: Human Plasma T½ (converted)
Method: (§1) B. Human and Rat Plasma Half-Life Assay
(§2) 50 μl was removed at various times, like at 0, 1, 2, 3, 4, 8, 24, 32, 48, 56, 72 hours, mixed with 5 μl formic acid and 150 μL acetonitrile in a microcentrifuge tube, vertexed, and centrifuged for 10 minutes at 10 K rpm. The supernatant was transferred to an injection vial and analyzed by LC-MS. The LC-MS system consisted of an API4000 mass spectrometer with an ESI probe. Positive ion mode and full scan detection were used. HPLC separation was carried out on a Luna 3μ. C8 (2), 2×30 mm column with a gradient from 90% A to 90% B in 10 minutes at a flow rate of 0.3 ml/min. Buffer A was 1% formic acid in water and buffer B was 1% formic acid acetonitrile.

[3] = Rat plasma half-life assay; type: in vitro ADME; conditions: 37° C., LC-MS, read-out: Rat Plasma T½ (converted)
Method: as §1, §2

Row | SMILES | Ki [1] [nM] | half-life at 0.1 mg/ml [2] [h] | half-life at 0.1 mg/ml [3] [h]
1 | CC[C@H](C)[C@H](NC(=O)[C@H](CCCCN)NC(=O)[C@H](CC(=O)O)NC(=O)[C@H](CCSC)NC(=O)[C@H](C)NC(=O)[C@@H](NC(=O)C1(NC(=O)[C@H](Cc2ccc(O)cc2)NC(=O)[C@H](CC(=O)O)NC(=O)[C@H](CO)NC(=O)[C@@H](NC(=O)[C@H](Cc2ccccc2)NC(=O)[C@@H](NC(=O)CNC(=O)[C@H](CCC(=O)O)NC(=O)C(C)(C)NC(=O)[C@@H](N)Cc2ccc(F)cc2)[C@@H](C)O)[C@@H](C)CC)CCCC1)[C@@H](C)CC)C(=O)N[C@@H](Cc1c[nH]cn1)C(=O)N[C@@H](CCC(N)=O)C(=O)N[C@@H](CCC(N)=O)C(=O)N[C@@H](CC(=O)O)C(=O)N[C@@H](Cc1ccccc1)C(=O)N[C@H](C(=O)N[C@@H](CC(N)=O)C(=O)N[C@@H](Cc1c[nH]c2ccccc12)C(=O)N[C@@H](CC(C)C)C(=O)N[C@@H](CC(C)C)C(=O)N[C@@H](C)C(=O)N[C@@H](CCC(N)=O)C(=O)N[C@@H](CCCCN)C(=O)NCC(=O)N[C@@H](CCCCN)C(=O)N[C@@H](CCCCN)C(=O)N[C@@H](CC(N)=O)C(=O)N[C@@H](CC(=O)O)C(=O)N[C@@H](Cc1c[nH]c2ccccc12)C(=O)N[C@@H](CCCCN)C(=O)N[C@@H](Cc1c[nH]cn1)C(=O)N[C@@H](CC(N)=O)C(=O)N[C@H](C(=O)NC1(C(=O)N[C@@H](CCC(N)=O)C(=O)O)CCCC1)[C@@H](C)CC)C(C)C [Example 32, (4F-Phe^1, Aib^2, A5c^11, 41)hGIP(1-42)-OH] | 5.82 | 23.9 | > 61
2 | CC[C@H](C)[C@H](NC(=O)[C@H](CCCCN)NC(=O)[C@H](CC(=O)O)NC(=O)[C@H](CCSC)NC(=O)[C@H](C)NC(=O)[C@@H](NC(=O)C1(NC(=O)[C@H](Cc2ccc(O)cc2)NC(=O)[C@H](CC(=O)O)NC(=O)[C@H](CO)NC(=O)[C@@H](NC(=O)[C@H](Cc2ccccc2)NC(=O)[C@@H](NC(=O)CNC(=O)[C@H](CCC(=O)O)NC(=O)C(C)(C)NC(=O)[C@@H](N)Cc2c(C)cc(O)cc2C)[C@@H](C)O)[C@@H](C)CC)CCCC1)[C@@H](C)CC)C(=O)N[C@@H](Cc1c[nH]cn1)C(=O)N[C@@H](CCC(N)=O)C(=O)N[C@@H](CCC(N)=O)C(=O)N[C@@H](CC(=O)O)C(=O)N[C@@H](Cc1ccccc1)C(=O)N[C@H](C(=O)N[C@@H](CC(N)=O)C(=O)N[C@@H](Cc1c[nH]c2ccccc12)C(=O)N[C@@H](CC(C)C)C(=O)N[C@@H](CC(C)C)C(=O)N[C@@H](C)C(=O)N[C@@H](CCC(N)=O)C(=O)N[C@@H](CCCCN)C(=O)NCC(=O)N[C@@H](CCCCN)C(=O)N[C@@H](CCCCN)C(=O)N[C@@H](CC(N)=O)C(=O)N[C@@H](CC(=O)O)C(=O)N[C@@H](Cc1c[nH]c2ccccc12)C(=O)N[C@@H](CCCCN)C(=O)N[C@@H](Cc1c[nH]cn1)C(=O)N[C@@H](CC(N)=O)C(=O)N[C@H](C(=O)NC1(C(=O)N[C@@H](CCC(N)=O)C(=O)O)CCCC1)[C@@H](C)CC)C(C)C [Example 30, (2,6Me-Tyr^1, Aib^2, A5c^11, 41)hGIP(1-42)-OH] | 1.03 | 27.6 | 7.2
3 | CC[C@H](C)[C@H](NC(=O)[C@H](CCCCN)NC(=O)[C@H](CC(=O)O)NC(=O)[C@H](CCSC)NC(=O)[C@H](C)NC(=O)[C@@H](NC(=O)C1(NC(=O)[C@H](Cc2ccc(O)cc2)NC(=O)[C@H](CC(=O)O)NC(=O)[C@H](CO)NC(=O)[C@@H](NC(=O)[C@H](Cc2ccccc2)NC(=O)[C@@H](NC(=O)CNC(=O)[C@H](CCC(=O)O)NC(=O)C(C)(C)NC(=O)[C@@H](N)Cc2cccnc2)[C@@H](C)O)[C@@H](C)CC)CCCC1)[C@@H](C)CC)C(=O)N[C@@H](Cc1c[nH]cn1)C(=O)N[C@@H](CCC(N)=O)C(=O)N[C@@H](CCC(N)=O)C(=O)N[C@@H](CC(=O)O)C(=O)N[C@@H](Cc1ccccc1)C(=O)N[C@H](C(=O)N[C@@H](CC(N)=O)C(=O)N[C@@H](Cc1c[nH]c2ccccc12)C(=O)N[C@@H](CC(C)C)C(=O)N[C@@H](CC(C)C)C(=O)N[C@@H](C)C(=O)N[C@@H](CCC(N)=O)C(=O)N[C@@H](CCCCN)C(=O)NCC(=O)N[C@@H](CCCCN)C(=O)N[C@@H](CCCCN)C(=O)N[C@@H](CC(N)=O)C(=O)N[C@@H](CC(=O)O)C(=O)N[C@@H](Cc1c[nH]c2ccccc12)C(=O)N[C@@H](CCCCN)C(=O)N[C@@H](Cc1c[nH]cn1)C(=O)N[C@@H](CC(N)=O)C(=O)N[C@H](C(=O)NC1(C(=O)N[C@@H](CCC(N)=O)C(=O)O)CCCC1)[C@@H](C)CC)C(C)C [Example 34, (3-Pal^1, Aib^2, A5c^11, 41)hGIP(1-42)-OH] | 9.75 | > 63 | 16.3
4 | CC[C@H](C)[C@H](NC(=O)[C@H](CCCCN)NC(=O)[C@H](CC(=O)O)NC(=O)[C@H](CCSC)NC(=O)[C@H](C)NC(=O)[C@@H](NC(=O)C1(NC(=O)[C@H](Cc2ccc(O)cc2)NC(=O)[C@H](CC(=O)O)NC(=O)[C@H](CO)NC(=O)[C@@H](NC(=O)[C@H](Cc2ccccc2)NC(=O)[C@@H](NC(=O)CNC(=O)[C@H](CCC(=O)O)NC(=O)C(C)(C)NC(=O)[C@@H](N)Cc2cscn2)[C@@H](C)O)[C@@H](C)CC)CCCC1)[C@@H](C)CC)C(=O)N[C@@H](Cc1c[nH]cn1)C(=O)N[C@@H](CCC(N)=O)C(=O)N[C@@H](CCC(N)=O)C(=O)N[C@@H](CC(=O)O)C(=O)N[C@@H](Cc1ccccc1)C(=O)N[C@H](C(=O)N[C@@H](CC(N)=O)C(=O)N[C@@H](Cc1c[nH]c2ccccc12)C(=O)N[C@@H](CC(C)C)C(=O)N[C@@H](CC(C)C)C(=O)N[C@@H](C)C(=O)N[C@@H](CCC(N)=O)C(=O)N[C@@H](CCCCN)C(=O)NCC(=O)N[C@@H](CCCCN)C(=O)N[C@@H](CCCCN)C(=O)N[C@@H](CC(N)=O)C(=O)N[C@@H](CC(=O)O)C(=O)N[C@@H](Cc1c[nH]c2ccccc12)C(=O)N[C@@H](CCCCN)C(=O)N[C@@H](Cc1c[nH]cn1)C(=O)N[C@@H](CC(N)=O)C(=O)N[C@H](C(=O)NC1(C(=O)N[C@@H](CCC(N)=O)C(=O)O)CCCC1)[C@@H](C)CC)C(C)C [Example 35, (Taz^1, Aib^2, A5c^11, 41)hGIP(1-42)-OH] | 3.28 | 74.5 | 50.6
5 | CC[C@H](C)[C@H](NC(=O)[C@H](CCCCN)NC(=O)[C@H](CC(=O)O)NC(=O)[C@H](CCSC)NC(=O)[C@H](C)NC(=O)[C@@H](NC(=O)C1(NC(=O)[C@H](Cc2ccc(O)cc2)NC(=O)[C@H](CC(=O)O)NC(=O)[C@H](CO)NC(=O)[C@@H](NC(=O)[C@H](Cc2ccccc2)NC(=O)[C@@H](NC(=O)CNC(=O)[C@H](CCC(=O)O)NC(=O)C(C)(C)NC(=O)[C@@H](N)Cc2c(C)cc(O)cc2C)[C@@H](C)O)[C@@H](C)CC)CCCC1)[C@@H](C)CC)C(=O)N[C@@H](Cc1c[nH]cn1)C(=O)N[C@@H](CCC(N)=O)C(=O)N[C@@H](CCC(N)=O)C(=O)N[C@@H](CC(=O)O)C(=O)N[C@@H](Cc1ccccc1)C(=O)N[C@H](C(=O)N[C@@H](CC(N)=O)C(=O)N[C@@H](Cc1c[nH]c2ccccc12)C(=O)N[C@@H](CC(C)C)C(=O)N[C@@H](CC(C)C)C(=O)N[C@@H](C)C(=O)N[C@@H](CCC(N)=O)C(=O)N[C@@H](CCCCN)C(=O)NCC(=O)N[C@@H](CCCCN)C(=O)N[C@@H](CCCCN)C(=O)N[C@@H](CC(N)=O)C(=O)N[C@@H](CC(=O)O)C(=O)N[C@@H](Cc1c[nH]c2ccccc12)C(=O)N[C@@H](CCCCN)C(=O)N[C@@H](Cc1c[nH]cn1)C(=O)N[C@@H](CC(N)=O)C(=O)N[C@H](C(=O)N[C@H](C(=O)N[C@@H](CCC(N)=O)C(=O)N[C@@H](Cc1c[nH]cn1)C(=O)O)[C@@H](C)O)[C@@H](C)CC)C(C)C [Example 53, (2,6Me-Tyr^1, Aib^2, A5c^11, His^43)hGIP(1-43)-OH] | 35 | 20 | 23.2
